Laboratory results as given in patent publication EP4603105A1, “PHARMACEUTICAL COMPOSITION CONTAINING CYCLIC COMPOUND HAVING SELECTIVE KRAS INHIBITORY EFFECT AGAINST HRAS AND NRAS” (CHUGAI SEIYAKU KABUSHIKI KAISHA, priority 2022, dated 2024).
Where a SMILES comes first, the peptide text is derived from it. Bridges are numbered along the chain shown (N, C = ends). [ ]: non-standard residue; d: D form. The star is where a group is joined. hPhe(3,5-F2-4-CF3) = N[C@@H](CCc1cc(F)c(C(F)(F)F)c(F)c1)C(=O)O; NPrPhe(4-CF3) = CCCN[C@@H](Cc1ccc(C(F)(F)F)cc1)C(=O)O; NMeGly(cPent) = CN[C@H](C(=O)O)C1CCCC1; NMeD = CN[C@@H](CC(=O)O)C(=O)O; NMeL = CN[C@@H](CC(C)C)C(=O)O; αMeS = C[C@](N)(CO)C(=O)O; Morpholide = C1CN(*)CCO1; Sar = CNCC(=O)O; Allyl = C=CC*

Legend:
[1] = tested on: human lung cancer strain NCI-H441; format: cell-based
Outline: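 Step one: dispense the test compound in serial DMSO dilutions. Step three: add the reagent and measure […].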

[2] = target: GDP-bound KRAS wild-type protein (Homo sapiens, UniProt P01116); test: Binding to KRAS by surface plasmon resonance (SPR), dissociation constant KD
Chain of GDP-bound KRAS wild-type protein (P01116 1-188 isoform P01116-2): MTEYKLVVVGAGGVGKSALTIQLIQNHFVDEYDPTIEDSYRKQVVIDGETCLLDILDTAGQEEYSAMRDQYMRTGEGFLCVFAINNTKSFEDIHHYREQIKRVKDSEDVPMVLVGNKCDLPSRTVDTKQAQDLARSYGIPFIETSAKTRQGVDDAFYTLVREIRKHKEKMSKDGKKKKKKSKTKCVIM
Outline: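 Running buffer contained 10 µM GDP and 10 mM MgCl2 to keep RAS in the GDP state, with 4% DMSO at pH 7.4. Compounds were flowed at 100 µL/min in 75 s steps of rising concentration over captured biotin-Avi RAS at 30°C. Sensorgrams were fitted 1:1 for KD.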

[3] = target: GDP-bound NRAS wild-type protein (Homo sapiens, UniProt P01111); test: Binding to NRAS by surface plasmon resonance (SPR), KD and KD ratio to KRAS
Chain of GDP-bound NRAS wild-type protein (P01111 whole entry): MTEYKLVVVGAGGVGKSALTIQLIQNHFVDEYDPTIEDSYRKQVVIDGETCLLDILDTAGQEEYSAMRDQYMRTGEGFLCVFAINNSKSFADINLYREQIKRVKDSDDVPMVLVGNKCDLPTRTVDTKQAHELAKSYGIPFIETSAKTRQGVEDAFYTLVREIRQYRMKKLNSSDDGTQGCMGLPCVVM
Outline: (§1)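 Captured GDP-RAS (~100–300 RU) was exposed to increasing compound concentrations, 75 s per step, in running buffer with 10 µM GDP, 10 mM MgCl2 and 4% DMSO at pH 7.4.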

[4] = target: HRAS wild-type protein (Homo sapiens, UniProt P01112); test: Binding to HRAS by surface plasmon resonance (SPR), KD and KD ratio to KRAS
Chain of HRAS wild-type protein (P01112 whole entry): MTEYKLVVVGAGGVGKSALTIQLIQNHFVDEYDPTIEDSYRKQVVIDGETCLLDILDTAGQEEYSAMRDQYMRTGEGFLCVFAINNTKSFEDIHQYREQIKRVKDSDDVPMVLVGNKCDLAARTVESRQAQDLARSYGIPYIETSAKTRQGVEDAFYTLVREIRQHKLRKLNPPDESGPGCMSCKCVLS
Outline: as §1

[5] = Single Cycle Kinetics, 1:1 binding model
[6] = ratio of the KD value with respect to GDP-bound NRAS wild-type protein to the KD value with respect to KRAS
[7] = ratio of the KD value with respect to HRAS wild-type protein to the KD value with respect to KRAS
[8] = ratio of KD value for GDP-bound NRAS wild-type protein to KD value for KRAS (SPR)
[9] = ratio of KD value for HRAS wild-type protein to KD value for KRAS (SPR)
[10] = ratio of KD for GDP-bound NRAS wild-type protein to KD for KRAS
[11] = ratio of KD for HRAS wild-type protein to KD for KRAS

SMILES	IC50 [1] [nM]	Kd [2, 5] [nM]	Kd ([2]; Single Cycle Kinetics) [nM]	Kd ([2]; 1:1 binding model) [nM]	NRAS /KRAS [3, 6]	HRAS /KRAS [4, 7]	NRAS /KRAS [3, 8]	HRAS /KRAS [4, 9]	NRAS /KRAS [3, 10]	HRAS /KRAS [4, 11]
CCO[C@@H]1C[C@H]2C(=O)NC3(CCC3)C(=O)N(C)[C@@H](C3CCCC3)C(=O)N(C)[C@H](C(=O)N(C)C)CC(=O)N(C)[C@@H](CC3CC3)C(=O)N[C@@H]([C@@H](C)CC)C(=O)N(C)CC(=O)N(C)[C@H]3C/C=C\CCN(C3=O)[C@@H](Cc3ccc(F)cc3C)C(=O)N(C)CC(=O)N[C@@H](CCc3cc(F)c(C(F)(F)F)c(F)c3)C(=O)N2C1 [PP1528]	45.6	0.2					A (a compound having 10 or more and less than 20 is denoted as A)	B (a compound having 3 or more and less than 10 is denoted as B)		
C=CCOC[C@]1(C)NC(=O)[C@@H]2CCCN2C(=O)[C@H](CCc2cc(F)c(C(F)(F)F)c(F)c2)NC(=O)CN(C)C(=O)[C@H](Cc2ccc(C(F)(F)F)cc2)N(CCC)C(=O)CN(C)C(=O)CN(C)C(=O)[C@H]([C@@H](C)CC)NC(=O)[C@H](CC(C)C)N(C)C(=O)C[C@@H](C(=O)N2CCOCC2)N(C)C(=O)[C@H](C2CCCC2)N(C)C1=O [PP0763] ([NMeL]I[Sar][Sar][NPrPhe(4-CF3)][Sar][hPhe(3,5-F2-4-CF3)]P[αMeS](Allyl)[NMeGly(cPent)][NMeD]-Morpholide; lactam N-11)	83		0.98						B (a compound having 3 or more and less than 10 is denoted as B)	B (a compound having 3 or more and less than 10 is denoted as B)
CCCOC[C@H]1C(=O)N[C@@H]([C@@H](C)CC)C(=O)N(C)CC(=O)N(C)[C@H]2C/C=C\CCN(C2=O)[C@@H](Cc2ccc(C)cc2)C(=O)N(C)CC(=O)N[C@@H](CCc2cc(F)c(C(F)(F)F)c(F)c2)C(=O)N2C[C@H](OCC)C[C@H]2C(=O)NC2(CC(C)(C)C2)C(=O)N(C)[C@@H](C2CCCC2)C(=O)N(C)[C@H](C(=O)N(CC)CC)CC(=O)N1C [PP1578]	12.6	0.2					A (a compound having 10 or more and less than 20 is denoted as A)	A (a compound having 10 or more and less than 20 is denoted as A)		
CC[C@H](C)[C@@H]1NC(=O)[C@H](CC(C)C)N(C)C(=O)C[C@@H](C(=O)N2CCOCC2)N(C)C(=O)[C@H](C2CCCC2)N(C)C(=O)C2(CCCC2)NC(=O)[C@@H]2CCCN2C(=O)[C@H](CCc2ccc(C(F)(F)F)c(Cl)c2)NC(=O)CN(C)C(=O)[C@H](Cc2ccc(F)cc2)N2CCCC[C@@H](C2=O)N(C)C(=O)CN(C)C1=O [PP0530]	7	0.06			C (A compound having a KD ratio of 0.1 or more and less than 3 is denoted as C)	B (a compound having 3 or more and less than 10 is denoted as B)				

Now from value to compound, other results behind:

IC50 [1] [nM]	Kd [2, 5] [nM]	Kd ([2]; Single Cycle Kinetics) [nM]	Kd ([2]; 1:1 binding model) [nM]	SMILES	NRAS /KRAS [3, 6]	HRAS /KRAS [4, 7]	NRAS /KRAS [3, 8]	HRAS /KRAS [4, 9]	NRAS /KRAS [3, 10]	HRAS /KRAS [4, 11]
5.7	0.29			CCO[C@@H]1C[C@H]2C(=O)NC3(CC(C)(C)C3)C(=O)N(C)[C@@H](C3CCCC3)C(=O)N(C)[C@H](C(=O)N(C)C)CC(=O)N(C)[C@@H](CC(C)C)C(=O)N[C@@H]([C@@H](C)CC)C(=O)N(C3CC3)CC(=O)N(C)[C@H]3C/C=C\CCN(C3=O)[C@@H](Cc3ccc(C)cc3)C(=O)N(C)CC(=O)N[C@@H](CCc3cc(F)c(C(F)(F)F)c(F)c3)C(=O)N2C1 [PP2109]	A (a compound having 10 or more and less than 20 is denoted as A)	A (a compound having 10 or more and less than 20 is denoted as A)				
15.2	0.13			CCCOC[C@H]1C(=O)N[C@@H]([C@@H](C)CC)C(=O)N(C)CC(=O)N(C)[C@H]2C/C=C\CCN(C2=O)[C@@H](Cc2ccc(C(F)(F)F)cc2)C(=O)N(C)CC(=O)N[C@@H](CCc2cc(F)c(C(F)(F)F)c(F)c2)C(=O)N2C[C@@H](C)C[C@H]2C(=O)NC2(CCC2)C(=O)N(C)[C@@H](C2CCCC2)C(=O)N(C)[C@H](C(=O)N(C)CCC)CC(=O)N1C [PP2008]	A (a compound having 10 or more and less than 20 is denoted as A)	A (a compound having 10 or more and less than 20 is denoted as A)				
52.8			0.6	CCC[C@H]1C(=O)N[C@@H]([C@@H](C)CC)C(=O)N(C)CC(=O)N(C)[C@H]2C/C=C\CCN(C2=O)[C@@H](Cc2ccc(C)cc2)C(=O)N(C)CC(=O)N[C@@H](CCc2cc(F)c(C(F)(F)F)c(F)c2)C(=O)N2C[C@H](OCC)C[C@H]2C(=O)NC2(CC(C)(C)C2)C(=O)N(C)[C@@H](CC2CC2)C(=O)N(C)[C@H](C(=O)N(C)C)CC(=O)N1C [PP2797]					A (a compound having 10 or more and less than 20 is denoted as A)	A (a compound having 10 or more and less than 20 is denoted as A)
